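Five concentrations, 48 hours, 96-well plates. GI50 = concentration required for 50% inhibition of growth.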 Calls of active or inactive are those of the source. Cut-off read from the data, not from the text of the source: active = GI50 up to about 1.1 µM and inactive = higher.
What was measured:
Assay in all cases: NCI tumour cell line growth inhibition, 48 h
HOP-92 = tested on: HOP-92
HT-29 = tested on: HT-29
SN12C = tested on: SN12C
SK-MEL-5 = tested on: SK-MEL-5
ACHN = tested on: ACHN
KM12 = tested on: KM12
A498 = tested on: A498
SF-268 = tested on: SF-268
SW-620 = tested on: SW-620
SR = tested on: SR
SNB-19 = tested on: SNB-19
UO-31 = tested on: UO-31
CCRF-CEM = tested on: CCRF-CEM
CAKI-1 = tested on: CAKI-1
DU-145 = tested on: DU-145
T47D = tested on: T47D
NCI-H23 = tested on: NCI-H23
SK-MEL-28 = tested on: SK-MEL-28
MOLT-4 = tested on: MOLT-4

SMILES | GI50 (HOP-92) | GI50 (HT-29) | GI50 (SN12C) | GI50 (SK-MEL-5) | GI50 (ACHN) | GI50 (KM12) | GI50 (A498) | GI50 (SF-268) | GI50 (SW-620) | GI50 (SR) | GI50 (SNB-19) | GI50 (UO-31) | GI50 (CCRF-CEM) | GI50 (CAKI-1) | GI50 (DU-145) | GI50 (T47D) | GI50 (NCI-H23) | GI50 (SK-MEL-28) | GI50 (MOLT-4)
CCOC(=O)C1C(=O)CC(C)(O)C(C(=O)OCC)C1c1ccc(OC)cc1 (configuration not stated) | > 100 µM (inactive) | > 100 µM (inactive) | > 100 µM (inactive) | > 100 µM (inactive) | > 100 µM (inactive) | > 100 µM (inactive) | > 100 µM (inactive) | > 100 µM (inactive) | > 100 µM (inactive) | > 100 µM (inactive) | > 100 µM (inactive) | > 100 µM (inactive) | > 100 µM (inactive) | > 100 µM (inactive) | > 100 µM (inactive) | > 100 µM (inactive) | > 100 µM (inactive) | > 100 µM (inactive) | > 100 µM (inactive)
CC(C)c1ccc2c(c1)CCC1C(C)(CN)CCCC21C (configuration not stated) | 1.55 µM (inactive) | 0.914 µM (active) | 1.71 µM (inactive) | 1.8 µM (inactive) | 1.74 µM (inactive) | 1.69 µM (inactive) | 1.61 µM (inactive) | 1.65 µM (inactive) | 1.29 µM (inactive) | 1.1 µM (active) | 1.77 µM (inactive) | 1.39 µM (inactive) | 1.55 µM (inactive) | 1.41 µM (inactive) | 1.77 µM (inactive) | 1.45 µM (inactive) | 1.7 µM (inactive) | 1.73 µM (inactive) | 1.32 µM (inactive)
C[C@]12CC[C@@H]3c4cc(OCC(F)(F)F)c(O)cc4C(=O)C[C@H]3[C@@H]1CC[C@@H]2O | 20.7 µM (inactive) | 12.9 µM (inactive) | 13.1 µM (inactive) | 5.87 µM (inactive) | 20.7 µM (inactive) | 10.6 µM (inactive) | 7.93 µM (inactive) | 13.7 µM (inactive) | 4.02 µM (inactive) | 1.51 µM (inactive) | 13.5 µM (inactive) | 13.6 µM (inactive) | 3.39 µM (inactive) | 6.93 µM (inactive) | 17.3 µM (inactive) | 29.1 µM (inactive) | 12 µM (inactive) | 7.64 µM (inactive) | 3.5 µM (inactive)
Cc1cc(NC2=CC(=O)C(=O)c3ccccc32)no1 | 16.4 µM (inactive) | 13 µM (inactive) | 2.88 µM (inactive) | 2.26 µM (inactive) | 11.7 µM (inactive) | 12.6 µM (inactive) | 18.7 µM (inactive) | 15.2 µM (inactive) | 4.94 µM (inactive) | 7.16 µM (inactive) | 16.2 µM (inactive) | 7.94 µM (inactive) | 9.66 µM (inactive) | 5.71 µM (inactive) | 16.4 µM (inactive) | 11.9 µM (inactive) | 1.54 µM (inactive) | 13.5 µM (inactive) | 8.57 µM (inactive)
CC1=C(C#N)C(=O)N(/N=C/c2ccc(Cl)cc2)C(=O)/C1=c1\o/c(=C2/C(=O)N(/N=C/c3ccc(Cl)cc3)C(=O)C(C#N)=C2C)c2nccnc12 | > 100 µM (inactive) | > 100 µM (inactive) | > 100 µM (inactive) | 96.6 µM (inactive) | > 100 µM (inactive) | 47.1 µM (inactive) | > 100 µM (inactive) | 47.3 µM (inactive) | > 100 µM (inactive) | 80.5 µM (inactive) | > 100 µM (inactive) | 85.7 µM (inactive) | 70.3 µM (inactive) | > 100 µM (inactive) | > 100 µM (inactive) | > 100 µM (inactive) | > 100 µM (inactive) | > 100 µM (inactive) | 88.3 µM (inactive)
COc1ccccc1Cn1c2c(c3c(C(=O)NCCN(C)C)c(O)ccc31)C(=O)c1ccccc1C2=O | 1.17 µM (inactive) | 1.92 µM (inactive) | 1.94 µM (inactive) | 1.74 µM (inactive) | 1.64 µM (inactive) | 1.59 µM (inactive) | 5.26 µM (inactive) | 1.68 µM (inactive) | – | 0.291 µM (active) | 2.03 µM (inactive) | 1.75 µM (inactive) | 0.298 µM (active) | 2.04 µM (inactive) | 1.81 µM (inactive) | 2.16 µM (inactive) | 1.83 µM (inactive) | 1.71 µM (inactive) | 1.06 µM (active)
Cc1c(C)c2c(c(N)c1C#N)C(=O)N(OS(=O)(=O)c1ccccc1)C2=O | 17 µM (inactive) | – | 23.7 µM (inactive) | 44.9 µM (inactive) | 18.5 µM (inactive) | 64.9 µM (inactive) | > 100 µM (inactive) | 95.1 µM (inactive) | 20.8 µM (inactive) | 27 µM (inactive) | > 100 µM (inactive) | 33.7 µM (inactive) | 21.5 µM (inactive) | 20.8 µM (inactive) | 11.6 µM (inactive) | 2.55 µM (inactive) | – | 24.5 µM (inactive) | 21.4 µM (inactive)
C=CCOc1ccccc1C1(O)c2ccccc2C2=NCCCN21 (configuration not stated) | 56.9 µM (inactive) | 19.5 µM (inactive) | 74.1 µM (inactive) | 25.6 µM (inactive) | 37.8 µM (inactive) | 32.4 µM (inactive) | > 100 µM (inactive) | > 100 µM (inactive) | 56.5 µM (inactive) | > 100 µM (inactive) | 33.5 µM (inactive) | > 100 µM (inactive) | 33 µM (inactive) | > 100 µM (inactive) | 57.9 µM (inactive) | > 100 µM (inactive) | 30.8 µM (inactive) | 20.4 µM (inactive) | 32.9 µM (inactive)
CC1CNC(c2ccc(-c3nc(-c4ccc(C5=NC(C)CN5)cc4)nc(N(C)C)n3)cc2)=N1 (configuration not stated) | 3.14 µM (inactive) | 1.79 µM (inactive) | 1.47 µM (inactive) | 3.8 µM (inactive) | 3.01 µM (inactive) | 2.23 µM (inactive) | 2.05 µM (inactive) | 2 µM (inactive) | 1.17 µM (inactive) | 0.653 µM (active) | 1.75 µM (inactive) | 7.33 µM (inactive) | 0.685 µM (active) | 17.6 µM (inactive) | 1.78 µM (inactive) | 2.71 µM (inactive) | 2.39 µM (inactive) | 2.69 µM (inactive) | 0.681 µM (active)
CC(=O)[C@]12OC(=O)C3=C1[C@H](CC[C@@H]3C)[C@@H](C)C[C@H]2C=C(C)C | 1.43 µM (inactive) | 6.79 µM (inactive) | 8.69 µM (inactive) | 5.52 µM (inactive) | 8.11 µM (inactive) | 7.62 µM (inactive) | 7.96 µM (inactive) | 8.47 µM (inactive) | 7.55 µM (inactive) | 7.87 µM (inactive) | 8.09 µM (inactive) | 8.22 µM (inactive) | 9.44 µM (inactive) | 6.49 µM (inactive) | 8.09 µM (inactive) | 6.44 µM (inactive) | 9.14 µM (inactive) | – | 10 µM (inactive)
O=[N+]([O-])c1ccccc1S(=O)(=O)N1CCCc2cc(Cl)ccc21 | 21.5 µM (inactive) | 9.35 µM (inactive) | 82.4 µM (inactive) | 19.6 µM (inactive) | > 51.6 µM (inactive) | 18.5 µM (inactive) | 27.2 µM (inactive) | > 68.1 µM (inactive) | 17.1 µM (inactive) | 5.75 µM (inactive) | > 80.2 µM (inactive) | 30.6 µM (inactive) | 8.91 µM (inactive) | > 100 µM (inactive) | > 90.6 µM (inactive) | 15.3 µM (inactive) | 34 µM (inactive) | 61 µM (inactive) | 6.35 µM (inactive)
CCCCC(=O)c1c(O)ccc2c(C)cc(=O)oc12 | 36.3 µM (inactive) | > 100 µM (inactive) | > 100 µM (inactive) | 53.5 µM (inactive) | 96.6 µM (inactive) | > 100 µM (inactive) | 97.7 µM (inactive) | > 100 µM (inactive) | > 100 µM (inactive) | 40.7 µM (inactive) | > 100 µM (inactive) | 24.8 µM (inactive) | 82.2 µM (inactive) | 68.9 µM (inactive) | 64.9 µM (inactive) | 14.8 µM (inactive) | 99.8 µM (inactive) | > 100 µM (inactive) | 77.1 µM (inactive)
Cc1c(O)c(OC2OC(CO)C(O)C(O)C2O)cc2c1CC[C@@H]1C2(C)C(=O)C[C@]2(C)[C@@H]([C@@](C)(O)C(O)/C=C/C(C)(C)O)[C@H](O)C[C@@]12C (some centres not stated) | > 100 µM (inactive) | > 100 µM (inactive) | > 100 µM (inactive) | > 100 µM (inactive) | > 100 µM (inactive) | > 100 µM (inactive) | > 100 µM (inactive) | > 100 µM (inactive) | > 100 µM (inactive) | > 100 µM (inactive) | > 100 µM (inactive) | > 100 µM (inactive) | > 100 µM (inactive) | > 100 µM (inactive) | > 100 µM (inactive) | > 100 µM (inactive) | > 100 µM (inactive) | > 100 µM (inactive) | > 100 µM (inactive)
Cc1cnc2nc(-c3sccc3C)cc(O)c2c1 | 97.3 µM (inactive) | 2.4 µM (inactive) | 10.2 µM (inactive) | 1.23 µM (inactive) | 8.85 µM (inactive) | 3.1 µM (inactive) | 23.4 µM (inactive) | 10.9 µM (inactive) | 1.91 µM (inactive) | 0.471 µM (active) | 2.85 µM (inactive) | 6.25 µM (inactive) | 1.6 µM (inactive) | 6.47 µM (inactive) | 4.74 µM (inactive) | > 100 µM (inactive) | 3.7 µM (inactive) | 23 µM (inactive) | 6.18 µM (inactive)

Reference: ChEMBL document CHEMBL1201862, “PubChem BioAssay data set” (2004)
